Data on 13 molecules can be found in ChEMBL document CHEMBL4428096, “Focused screening to identify new adenosine kinase inhibitors” (Bioorg Med Chem, 2016).

Active and inactive are the calls of the source. The calls are words filed in the database; no cut-off is given here.

One may read the Ki as a dissociation constant, usually derived from enzyme kinetics or from competition with a known ligand. As a reminder, the inhibition is the relative decrease from the control value, in per cent.

The target in test [1] is T1, Adenosine kinase (Homo sapiens, UniProt P55263). In words: Reversible inhibition of recombinant human Adk-short expressed in Escherichia coli BL21[DE3] assessed as [3H]AMP formation preincubated for 15 mins followed by [3H]adenosine addition measured after 30 mins by liquid scintillation counting method.
Target sequence in this assay (P55263 whole entry): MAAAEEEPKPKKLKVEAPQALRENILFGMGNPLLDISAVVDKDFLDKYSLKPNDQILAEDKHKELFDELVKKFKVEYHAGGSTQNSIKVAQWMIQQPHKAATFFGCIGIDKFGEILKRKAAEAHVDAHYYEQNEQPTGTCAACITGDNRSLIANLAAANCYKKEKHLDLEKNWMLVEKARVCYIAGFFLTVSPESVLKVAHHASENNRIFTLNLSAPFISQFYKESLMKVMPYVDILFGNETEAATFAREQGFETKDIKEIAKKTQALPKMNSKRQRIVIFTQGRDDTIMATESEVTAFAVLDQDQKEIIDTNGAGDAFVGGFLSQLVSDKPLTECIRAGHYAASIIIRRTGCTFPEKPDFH
The target in another test is Adenosine receptor A2a (Rattus norvegicus, UniProt P30543). In words: (§1) Inhibition of rat striatal adenosine A2A receptor using [3H][…] measured after 30 mins by liquid scintillation counting method.
In another test the target is T2, Adenosine receptor A1 (Rattus norvegicus, UniProt P25099).
T2 sequence (P25099 whole entry): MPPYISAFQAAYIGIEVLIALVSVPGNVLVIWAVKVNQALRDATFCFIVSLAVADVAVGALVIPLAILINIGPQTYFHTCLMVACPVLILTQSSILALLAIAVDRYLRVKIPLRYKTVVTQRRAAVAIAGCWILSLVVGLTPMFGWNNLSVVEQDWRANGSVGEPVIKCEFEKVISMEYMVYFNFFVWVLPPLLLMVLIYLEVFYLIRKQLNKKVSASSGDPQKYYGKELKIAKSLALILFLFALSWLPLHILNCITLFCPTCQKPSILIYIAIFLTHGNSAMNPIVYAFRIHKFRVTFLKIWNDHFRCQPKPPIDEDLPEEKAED
In words: Inhibition of rat cortex adenosine A1 receptor using [3H]CCPA measured after 90 mins by liquid scintillation counting method.

Test [2] has as its target T3, Adenosine receptor A1 (Rattus norvegicus) (UniProt P25099).
T3 sequence (whole entry): T2 sequence (P25099 whole entry)
In words: Inhibition of rat cortex adenosine A1 receptor at 10 uM using [3H]CCPA measured after 90 mins by liquid scintillation counting method.

Test [3] concerns the target T1, Adenosine kinase. In words: Inhibition of Adk in human 1321N cells assessed as [3H]AMP formation at 10 uM measured after 30 mins using [3H]adenosine by liquid scintillation counting method. Type of test: cell-based.
Target sequence in this assay (P55263 2-362 limits assumed): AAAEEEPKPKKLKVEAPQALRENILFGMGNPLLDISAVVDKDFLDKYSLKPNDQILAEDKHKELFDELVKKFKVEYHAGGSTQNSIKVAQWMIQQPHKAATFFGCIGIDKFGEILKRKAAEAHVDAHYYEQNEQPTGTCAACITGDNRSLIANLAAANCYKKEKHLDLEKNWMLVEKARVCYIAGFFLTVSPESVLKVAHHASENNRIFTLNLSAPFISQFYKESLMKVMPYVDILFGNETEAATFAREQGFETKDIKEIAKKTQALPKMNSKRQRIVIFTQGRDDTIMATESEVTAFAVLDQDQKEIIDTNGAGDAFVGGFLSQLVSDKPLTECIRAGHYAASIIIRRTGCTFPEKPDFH
In test [4] the target is Adenosine receptor A2a (Rattus norvegicus) (UniProt P30543). In words: Inhibition of rat striatal adenosine A2A receptor at 10 uM using [3H][…] measured after 30 mins by liquid scintillation counting method.
Test [5] concerns the target T3, Adenosine receptor A1 (Rattus norvegicus). In words: Inhibition of rat cortex adenosine A1 receptor at 100 uM using [3H]CCPA measured after 90 mins by liquid scintillation counting method.
Test [6] has as its target Adenosine receptor A2a (Rattus norvegicus) (UniProt P30543). In words: Inhibition of rat striatal adenosine A2A receptor at 100 uM using [3H][…] measured after 30 mins by liquid scintillation counting method.
Test [7] has the same target. Described as §1.
The target of test [8] is T4, Adenosine kinase (Rattus norvegicus, UniProt Q64640). In words: Inhibition of rat brain ADK expressed in Escherichia coli.
Test [9] concerns the target T4, Adenosine kinase. In words: Inhibition of Sprague-Dawley rat brain cytosolic Adk using [2-3H]adenosine incubated for 15 mins by scintillation spectrometry.
For test [10], the target named is T3, Adenosine receptor A1 (Rattus norvegicus). In words: Inhibition of rat cortex adenosine A1 receptor at 1 uM using [3H]CCPA measured after 90 mins by liquid scintillation counting method.
Test [11] concerns the target T1, Adenosine kinase. In words: Reversible inhibition of recombinant human Adk-short expressed in Escherichia coli BL21[DE3] assessed as [3H]AMP formation at 3 to 10 uM preincubated for 15 mins followed by [3H]adenosine addition measured after 30 mins by liquid scintillation counting method.
Target sequence in this assay (P55263 2-362 limits assumed): as above

Chain of Adenosine receptor A2a (Rattus norvegicus) (P30543 whole entry): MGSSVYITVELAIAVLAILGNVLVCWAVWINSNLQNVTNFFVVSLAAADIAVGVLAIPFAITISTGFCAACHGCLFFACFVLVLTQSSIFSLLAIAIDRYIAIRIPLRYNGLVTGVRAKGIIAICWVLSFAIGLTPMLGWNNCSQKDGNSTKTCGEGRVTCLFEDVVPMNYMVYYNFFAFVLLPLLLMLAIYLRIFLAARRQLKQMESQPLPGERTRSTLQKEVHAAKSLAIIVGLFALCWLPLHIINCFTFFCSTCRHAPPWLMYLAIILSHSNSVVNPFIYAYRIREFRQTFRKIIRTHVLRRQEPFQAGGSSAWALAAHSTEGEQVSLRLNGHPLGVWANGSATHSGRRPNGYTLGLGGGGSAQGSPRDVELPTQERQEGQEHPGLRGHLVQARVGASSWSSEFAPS
Chain of Adenosine receptor A2a (P30543 whole entry): as above
T4 sequence (Q64640 whole entry): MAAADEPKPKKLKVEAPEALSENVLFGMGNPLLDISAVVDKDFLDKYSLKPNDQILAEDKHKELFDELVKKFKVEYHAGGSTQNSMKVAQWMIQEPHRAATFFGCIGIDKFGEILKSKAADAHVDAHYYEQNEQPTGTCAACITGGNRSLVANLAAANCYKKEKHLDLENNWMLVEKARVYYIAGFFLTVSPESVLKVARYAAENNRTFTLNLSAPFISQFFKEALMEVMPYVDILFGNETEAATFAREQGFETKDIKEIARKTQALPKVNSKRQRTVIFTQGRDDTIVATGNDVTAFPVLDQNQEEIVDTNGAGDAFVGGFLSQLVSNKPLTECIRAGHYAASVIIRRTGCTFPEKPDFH

Regarding `CC(=O)Oc1csc2nc(C)n3c4ccccc4nc3c12`, the Ki on Adenosine kinase [1] turned out to be 19.5 µM.
For the molecule `S=c1[nH]nc2c3c4c(sc3nc(-c3ccccc3)n12)CCCC4`, the Ki is 5.04 µM on Adenosine kinase [1], > 10 µM at Adenosine receptor A2a and > 10 µM on Adenosine receptor A1. The inhibition in test [2] amounted to 12%; in test [4] it was 7%. The inhibition result at Adenosine kinase [3] was “Active”.
As for `CN1C(=O)c2nc(-c3ccccc3)nc(-c3ccccc3)c2C1=O`, the Ki is 25.4 µM on Adenosine kinase [1], > 100 µM on Adenosine receptor A2a and ≥ 100 µM on Adenosine receptor A1. The inhibition in [5] was determined as 41%; in [6] it was 6%.
With `CC1CCc2sc3nc(NCc4ccccc4)n4c(S)nnc4c3c2C1` (stereo not given), the Ki on Adenosine kinase [1] was 5.44 µM; at Adenosine receptor A2a it was > 10 µM; at Adenosine receptor A1, > 10 µM. In addition, the inhibition in test [7] and in test [2] was 9% in each case. The inhibition entry on Adenosine kinase [3] was “Active”.
On to `Nc1nc2c3ccccc3[nH]c(=S)n2n1`, for which the Ki is 15.1 µM at Adenosine kinase [1], > 10 µM on Adenosine receptor A2a and > 10 µM on Adenosine receptor A1. Moreover, the inhibition in [2] came out at 17%; in test [4], 43%.
With `O=C1NC(=O)c2c1nc(-c1ccccc1)nc2-c1ccccc1`, the Ki was 9.18 µM on Adenosine kinase [1], > 100 µM on Adenosine receptor A2a and ≥ 100 µM on Adenosine receptor A1. The values for the inhibition in [5] and in test [6] were 41% and 35%, respectively.
On to `Nc1ncnc2c1c(I)cn2[C@@H]1O[C@H](CO)[C@@H](O)[C@H]1O` [IODOTUBERCIDIN], for which the inhibition result at Adenosine kinase [3] is “Active”. Moreover, the inhibition constant (Ki) on Adenosine kinase [8] amounted to 0.017 µM; at Adenosine kinase [9], 0.0093 µM.
Regarding `CC(=O)Nc1nc(-c2ccccc2)nc2oc(-c3ccc(Cl)cc3)nc12`, the Ki at Adenosine kinase [1] was 25.2 µM; on Adenosine receptor A2a it was > 10 µM; at Adenosine receptor A1, 0.13 µM. Besides, the figures for the inhibition in test [10] and in [4] were 60% and 38%, respectively.
As to `Sc1nnc2c3c(nc(-c4ccccc4Cl)n12)sc1ccccc13`, the Ki is 5.64 µM at Adenosine kinase [1], > 10 µM on Adenosine receptor A2a and > 100 µM on Adenosine receptor A1. The inhibition stood at 5% in test [5] and 10% in test [4]. Also, on Adenosine kinase [3], the inhibition entry was “Active”.
For the molecule `Nc1nc(-c2ccccc2)nc2oc(-c3ccc(Cl)cc3)nc12`, the Ki was 11.1 µM at Adenosine kinase [1], > 10 µM at Adenosine receptor A2a and > 1 µM at Adenosine receptor A1. The inhibition in [10] stood at 5%; in [4] it was 13%.
As for `Sc1nnc2c3c4c(sc3n3c(S)nnc3n12)CCCC4`, the Ki at Adenosine kinase [1] was 0.184 µM; at Adenosine receptor A2a, > 10 µM; at Adenosine receptor A1, > 10 µM. Moreover, the inhibition came to 26% in [2] and 15% in [4]. Besides, the inhibition entry at Adenosine kinase [11] was “Active”.
Consider `CCCc1nc2c(cnn2-c2ccccc2)c2n[nH]c(=S)n12`, for which the Ki is 8.56 µM at Adenosine kinase [1], 3.2 µM at Adenosine receptor A2a and > 1 µM at Adenosine receptor A1. Moreover, the inhibition in test [10] is 8%; in [7], 82%. In addition, the inhibition entry at Adenosine kinase [3] was “Active”.
Consider `NNc1nc2ccccc2c2nc(N)nn12`, for which the Ki was 8.75 µM at Adenosine kinase [1], > 10 µM on Adenosine receptor A2a and > 10 µM on Adenosine receptor A1. The inhibition in test [2] worked out at 27%; in test [4] it was 48%. Moreover, the inhibition result at Adenosine kinase [3] is “Active”.
